Data from patent publication US20230144436A1, “MUSCLE TARGETING COMPLEXES AND USES THEREOF FOR TREATING MYOTONIC DYSTROPHY” (Dyne Therapeutics, Inc., priority 2020, published 2023).

Test system: DMPK
Assay: DMPK knockdown by transfected antisense oligonucleotides in DM1 C15 myotubes at 0.5 nM and 50 nM
Type: cell-based
Details: 72 hours; for Normalized DMPK Remaining: relative to vehicle control = 1.00
How it was run: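 DMPK remaining was measured by qPCR 72 h post-transfection, normalized to lipofectamine-only vehicle wells (=1.00). Oligonucleotides were delivered at 0.5 and 50 nM final to DM1 C15 myoblasts differentiated seven days into myotubes, in triplicate.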

Substance | Percent DMPK Reduction (0.5 nM oligonucleotide) [%] | Normalized DMPK Remaining (0.5 nM oligonucleotide) | Percent DMPK Reduction (50 nM oligonucleotide) [%] | Normalized DMPK Remaining (50 nM oligonucleotide)
447 (CAUCCAAAACGUGGAUUGGG; chemistry not given here) [compound 447] | 19.12 | 0.81 | 77.98 | 0.22
448 (UUGGGCAGAUGGAGGGCCUU; chemistry not given here) [compound 448] | 19.08 | 0.81 | 78.39 | 0.22
449 (CCUCUGCCUCGCGUAGUUGA; chemistry not given here) [compound 449] | 7.39 | 0.93 | 85.33 | 0.15
450 (ACAGAACAACGGCGAACAGG; chemistry not given here) [compound 450] | 2.07 | 0.98 | 55.96 | 0.44
451 (CAGGAUGUUGUCGGGUUUGA; chemistry not given here) [compound 451] | 17.17 | 0.83 | 79.31 | 0.21
452 (CGGCCUCAGCCUCUGCCGCA; chemistry not given here) [compound 452] | 6.71 | 0.93 | 60.06 | 0.40
453 (CAGCAGGAUGUUGUCGGGUU; chemistry not given here) [compound 453] | 34.18 | 0.66 | 84.54 | 0.15
454 (GCAGAGAGAGGUGCUCCUUG; chemistry not given here) [compound 454] | 17.29 | 0.83 | 85.95 | 0.14
455 (UCCAGUUCCAUGGGUGUGGG; chemistry not given here) [compound 455] | 15.66 | 0.84 | 78.48 | 0.22
456 (CCUCAGCCUGGCCGAAAGAA; chemistry not given here) [compound 456] | 16.83 | 0.83 | 63.99 | 0.36
457 (GGGCCUUUUAUUCGCGAGGG; chemistry not given here) [compound 457] | 5.11 | 0.95 | 50.65 | 0.49
458 (GUCGGCCAGGCGGAUGUGGC; chemistry not given here) [compound 458] | 15.35 | 0.85 | 74.59 | 0.25
459 (GCUUGCUGCCUUCCCAGGCC; chemistry not given here) [compound 459] | 1.14 | 0.99 | 81.01 | 0.19
460 (GGUCCAGCAGGAUGUUGUCG; chemistry not given here) [compound 460] | 31.78 | 0.68 | 79.93 | 0.20
461 (CGGAGACCAUCCCAGUCGAG; chemistry not given here) [compound 461] | 14.08 | 0.86 | 79.93 | 0.20
462 (UCUGCCUCGCGUAGUGACU; chemistry not given here) [compound 462] | 3.53 | 0.96 | 86.86 | 0.13
463 (AGGUAGUUCUCAUCCUGGAA; chemistry not given here) [compound 463] | 7.36 | 0.93 | 62.62 | 0.37
464 (UCCUUGUAGUGGACGAUCUU; chemistry not given here) [compound 464] | 12.96 | 0.87 | 84.87 | 0.15

Substance | Percent DMPK Reduction (0.5 nM oligonucleotide) [%] | Normalized DMPK Remaining (0.5 nM oligonucleotide) | Percent DMPK Reduction (50 nM oligonucleotide) [%] | Normalized DMPK Remaining (50 nM oligonucleotide)
465 (GCAUCCAAAACGUGGAUUGG; chemistry not given here) [compound 465] | 2.54 | 0.97 | 72.69 | 0.27
466 (GUCCAGCAGGAUGUGUCGG; chemistry not given here) [compound 466] | 30.00 | 0.70 | 82.64 | 0.17
467 (AGCUCCCGCAGCGUCACCUC; chemistry not given here) [compound 467] | 13.72 | 0.86 | 80.40 | 0.20
468 (CGAGAGCAGCGCAAGUGAGG; chemistry not given here) [compound 468] | -2.19 | 1.02 | 37.11 | 0.63
469 (CAGGGAAAGCGCCUCCGAUA; chemistry not given here) [compound 469] | 11.10 | 0.89 | 91.59 | 0.08
470 (AUUUCAUAGGCGAAUACACC; chemistry not given here) [compound 470] | -4.54 | 1.05 | 44.15 | 0.56
471 (UCGGCCAGGCGGAUGUGGCC; chemistry not given here) [compound 471] | 26.53 | 0.73 | 83.04 | 0.17
472 (AAGGGAUGUGUCCGGAAGUC; chemistry not given here) [compound 472] | 10.37 | 0.90 | 73.52 | 0.26
473 (CUUGUAGUGGACGAUCUUGC; chemistry not given here) [compound 473] | 24.09 | 0.76 | 89.16 | 0.11
474 (AGUCGGCCAGGCGGAUGUGG; chemistry not given here) [compound 474] | 6.15 | 0.94 | 67.44 | 0.33
475 (GCCUCAGCCUGGCCGAAAGA; chemistry not given here) [compound 475] | -4.82 | 1.05 | 63.11 | 0.37
476 (AGCGUCACCUCGGCCUCAGC; chemistry not given here) [compound 476] | 22.10 | 0.78 | 64.70 | 0.35
477 (CAGCGGCAGAGAGAGGUGCT; chemistry not given here) [compound 477] | 4.49 | 0.96 | 86.00 | 0.14
478 (CCAGCGGCAGAGAGAGGUGC; chemistry not given here) [compound 478] | 3.23 | 0.97 | 84.55 | 0.15
479 (UUGUAGUGGACGAUCUUGCC; chemistry not given here) [compound 479] | 17.22 | 0.83 | 81.05 | 0.19
480 (AGGGAAAGCGCCUCCGAUAG; chemistry not given here) [compound 480] | -1.12 | 1.01 | 75.50 | 0.25
481 (GGGAAAGCGCCUCCGAUAGG; chemistry not given here) [compound 481] | 10.02 | 0.90 | 76.79 | 0.23
